# According to patent publication US20260042764A1, “COMPOSITIONS AND METHODS FOR INHIBITION OF KRAS” (TheRas, Inc., priority 2022, published 2026):
# Columns and labels:
# [1] = target: T1, Avi-KRAS G12D (1-169) GppNHp/RAF1 RBD-3xFLAG (52-151) (Homo sapiens, UniProt P01116, G12D); assay: Raf1-KRAS G12D-GppNHP disruption HTRF assay (Biological Example 1); assay type: binding
# T1 construct: Avi-KRAS G12D (1-169)
# Method in brief: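 Percent activity versus DMSO (100%) was derived from HTRF signal after KRAS–RAF1 RBD protein mix was incubated 1 h at room temperature with shaking and detection reagents were added for a further 1 h.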
# GP2d cells (KRAS G12D) = assay: Cell-based pERK HTRF assay in GP2d cell (Biological Example 2); conditions: GP2d (KRAS G12D) cells
# Method in brief: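 HTRF read-out of pERK (excitation 320 nm, emission 615 nm) after lysates sat 4–24 h at room temperature with Eu cryptate and d2 antibodies.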
# [2] = target: T2, Avi-KRAS WT (2-169) GTP/RAF1 RBD-3xFLAG (51-131) (Homo sapiens, UniProt P01116); assay: Raf1-KRAS WT-GTP disruption HTRF assay (Biological Example 3); assay type: binding; conditions: KRAS WT, GTP-loaded
# T2 construct: Avi-KRAS WT (2-169)
# Method in brief: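 50 nM Avi-KRAS (2-169) GTP/RAF1 RBD complex; 75 nM RBD-Avi; pH 7.5 Tris buffer, 10% DMSO; cpd 30 μM top, 3x, 10 pts; 1 h RT, 700 rpm; HTRF, % of DMSO.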
# [3] = KRAS G12D, GppNHp-loaded, class symbols
# [4] = KRAS G12D, GppNHp-loaded, Table 11
# T1 sequence (P01116 1-169 isoform P01116-2 G12D): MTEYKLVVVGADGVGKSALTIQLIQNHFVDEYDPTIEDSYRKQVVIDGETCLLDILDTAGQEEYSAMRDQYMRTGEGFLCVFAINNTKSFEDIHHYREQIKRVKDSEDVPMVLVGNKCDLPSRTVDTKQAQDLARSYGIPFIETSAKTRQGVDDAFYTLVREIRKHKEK
# T2 sequence (P01116 2-169 isoform P01116-2): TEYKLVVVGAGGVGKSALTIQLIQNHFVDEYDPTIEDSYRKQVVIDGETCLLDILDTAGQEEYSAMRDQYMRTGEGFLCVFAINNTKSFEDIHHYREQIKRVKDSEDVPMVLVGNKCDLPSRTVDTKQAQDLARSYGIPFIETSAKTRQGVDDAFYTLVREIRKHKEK
"IC50 [1, 3] [nM]",IC50 (GP2d cells (KRAS G12D); GP2d) [nM],IC50 [2] [nM],IC50 ([1]; KRAS G12D-GppNHp/RAF1 RBD HTRF) [nM],"IC50 (GP2d cells (KRAS G12D); GP2d, pERK HTRF) [nM]",Compound,further results
< 100,< 100,100 to 1000,–,–,"CCN(c1nc(OC[C@@]23CCCN2C[C@H](F)C3)nc2c(F)c(-c3ccc(F)c4sc(N)c(C#N)c34)c(C(F)(F)F)cc12)[C@H]1CCN(C(=O)O[C@@H]2CCOC2)C1 (atropisomer, axis not shown) [Compound 683]","IC50 (GP2d cells (KRAS G12D); GP2d, pERK HTRF, class symbols): < 100 nM"
< 100,< 100,≤ 100,–,–,"CCN(c1nc(OC[C@@]23CCCN2C[C@H](F)C3)nc2c(F)c(-c3ccc(F)c4sc(N)c(C#N)c34)c(C(F)(F)F)cc12)[C@H]1CC(=O)N2CCC[C@@H]12 (atropisomer, axis not shown; (aS)) [Compound 697, 2-amino-4-((S)-4-(ethyl((1S,7aS)-3-oxohexahydro-1H-pyrrolizin-1-yl)amino)-8-fluoro-2-(((2R,7aS)-2-fluorotetrahydro-1H-pyrrolizin-7a(5H)-yl)methoxy)-6-(trifluoromethyl)quinazolin-7-yl)-7-fluorobenzo[b]thiophene-3-carbonitrile]","IC50 (GP2d cells (KRAS G12D); GP2d, pERK HTRF, class symbols): < 100 nM"
< 100,< 100,100 to 1000,–,–,"CCN(c1nc(OC[C@@]23CCCN2C[C@H](F)C3)nc2c(F)c(-c3ccc(F)c4sc(N)c(C#N)c34)c(C(F)(F)F)cc12)[C@H]1CCN(C(=O)N2CC(F)C2)C1 (atropisomer, axis not shown) [Compound 606]","IC50 (GP2d cells (KRAS G12D); GP2d, pERK HTRF, class symbols): < 100 nM"
–,–,–,100 to 1000,< 100,CCC(=O)N1C[C@@H](N(CC)c2nc(OC[C@@]34CCCN3C[C@H](F)C4)nc3c(F)c(-c4ccc(F)c5sc(N)c(C#N)c45)c(C(F)(F)F)cc23)C[C@H]1C [Compound 442],–
< 100,< 100,100 to 1000,–,–,CCN(c1nc(OC[C@]23CCCN2C[C@H](F)C3)nc2c(F)c(-c3ccc(F)c4sc(N)c(C#N)c34)c(C(F)(F)F)cc12)[C@H]1CCN(C(=O)C(C)C)C1 [Compound 705],"IC50 (GP2d cells (KRAS G12D); GP2d, pERK HTRF, class symbols): < 100 nM"
–,< 100,100 to 1000,< 100,–,"CCC(=O)N1CC[C@@H](N(C)c2nc(OC[C@@]34CCCN3C[C@H](F)C4)nc3c(F)c(-c4ccc(F)c5sc(N)c(C#N)c45)c(C(F)(F)F)cc23)[C@H]1C (atropisomer, axis not shown) [Compound 335]",IC50 (GP2d cells (KRAS G12D); pERK HTRF): < 100 nM
100 to 1000,< 100,1000 to 10000,–,–,CCN(c1nc(OC[C@@H]2C[C@@H](OC)CN2C)nc2c(F)c(-c3ccc(F)c4sc(N)c(C#N)c34)c(C(F)(F)F)cc12)[C@H]1CCN(C(=O)C(C)C)C1 [Compound 706],"IC50 (GP2d cells (KRAS G12D); GP2d, pERK HTRF, class symbols): < 100 nM"
–,< 100,100 to 1000,100 to 1000,< 100,"N#Cc1c(N)sc2c(F)ccc(-c3c(C(F)(F)F)cc4c(N5C[C@H]6C[C@@H]5CO6)nc(OC[C@@]56CCCN5C[C@H](F)C6)nc4c3F)c12 (single isomer, unassigned) [Compound 287]",–
–,< 100,100 to 1000,< 100,< 100,CCN(c1nc(OC[C@@]23CCCN2C[C@H](F)C3)nc2c(F)c(-c3ccc(F)c4sc(N)c(C#N)c34)c(C(F)(F)F)cc12)[C@H]1CCN(C(=O)C(C)C)C1 [Compound 332],–
–,< 100,100 to 1000,< 100,–,"C[C@@H]1[C@H](N(C)c2nc(OC[C@@]34CCCN3C[C@H](F)C4)nc3c(F)c(-c4ccc(F)c5sc(N)c(C#N)c45)c(C(F)(F)F)cc23)CCN1C(=O)C1CC1 (atropisomer, axis not shown) [Compound 333]",IC50 (GP2d cells (KRAS G12D); pERK HTRF): < 100 nM
–,< 100,100 to 1000,< 100,< 100,CCN(c1nc(OC[C@@]23CCCN2C[C@H](F)C3)nc2c(F)c(-c3ccc(F)c4sc(N)c(C#N)c34)c(C(F)(F)F)cc12)[C@H]1CCN(C(=O)OC)C1 [Compound 394],–
< 100,< 100,1000 to 10000,–,–,N#Cc1c(N)sc2c(F)ccc(-c3c(C(F)(F)F)cc4c(N5CCn6nc(C(=O)N7CCOCC7)cc6C5)nc(OCC56CCCN5CC(F)C6)nc4c3F)c12 (stereo not shown) [Compound 646],"IC50 (GP2d cells (KRAS G12D); GP2d, pERK HTRF, class symbols): < 100 nM"
–,< 100,100 to 1000,–,< 100,CCN(c1nc(OC[C@@]23CCCN2C[C@H](F)C3)nc2c(F)c(-c3ccc(F)c4sc(N)c(C#N)c34)c(C(F)(F)F)cc12)[C@@H]1CCN(C(C)=O)C1 [Compound 268],"IC50 [1, 4]: < 100 nM"
–,< 100,1000 to 10000,100 to 1000,< 100,CN(C)C(=O)c1cc2n(n1)CCN(c1nc(OC[C@@]34CCCN3C[C@H](F)C4)nc3c(F)c(-c4ccc(F)c5sc(N)c(C#N)c45)c(C(F)(F)F)cc13)C2 [Compound 355],–
< 100,< 100,≤ 100,–,–,CCN(c1nc(OC[C@@]23CCCN2C[C@H](F)C3)nc2c(F)c(-c3ccc(F)c4sc(N)c(C#N)c34)c(C(F)(F)F)cc12)[C@H]1CCN(C(=O)C2C[C@@H]2F)C1 (stereo partly shown) [Compound 692],"IC50 (GP2d cells (KRAS G12D); GP2d, pERK HTRF, class symbols): < 100 nM"
–,–,–,100 to 1000,< 100,C[C@@H]1[C@H](N(C)c2nc(OC[C@@]34CCCN3C[C@H](F)C4)nc3c(F)c(-c4ccc(F)c5sc(N)c(C#N)c45)c(C(F)(F)F)cc23)CC(=O)N1C [Compound 440],–
–,–,–,100 to 1000,< 100,CN(Cc1cccnc1N)c1nc(OC[C@@]23CCCN2C[C@H](F)C3)nc2c(F)c(-c3ccc(F)c4sc(N)c(C#N)c34)c(C(F)(F)F)cc12 [Compound 390],–
–,–,–,100 to 1000,< 100,CCN(c1nc(OC[C@@]23CCCN2C[C@H](F)C3)nc2c(F)c(-c3ccc(F)c4sc(N)c(C#N)c34)c(Cl)cc12)[C@@H]1CCN(C(=O)C2CC2)[C@@H]1C [Compound 337],–
–,–,–,–,< 100,N#Cc1c(N)sc2c(F)ccc(-c3c(C(F)(F)F)cc4c(N5CC6CC5CO6)nc(OC[C@@]56CCCN5C[C@H](F)C6)nc4c3F)c12 (stereo partly shown) [Compound 147],"IC50 [1, 4]: 100 to 1000 nM"
–,–,–,–,< 100,N#Cc1c(N)sc2c(F)ccc(-c3c(C(F)(F)F)cc4c(N5CCC[C@@H](O)C5)nc(OC[C@@]56CCCN5C[C@H](F)C6)nc4c3F)c12 [Compound 234],"IC50 [1, 4]: 100 to 1000 nM"
–,–,–,–,–,CCC(=O)N1CC[C@@H](N(C)c2nc(OC[C@@]34CCCN3C[C@H](F)C4)nc3c(F)c(-c4ccc(F)c5sc(N)c(C#N)c45)c(C(F)(F)F)cc23)[C@H]1C [Compound 260],"IC50 [1, 4]: < 100 nM; IC50 (GP2d cells (KRAS G12D); pERK HTRF): < 100 nM"
–,–,–,–,< 100,C[C@@H]1[C@H](N(C)c2nc(OC[C@@]34CCCN3C[C@H](F)C4)nc3c(F)c(-c4ccc(F)c5sc(N)c(C#N)c45)c(C(F)(F)F)cc23)CCN1C(=O)C1CC1 [Compound 258],"IC50 [1, 4]: < 100 nM"
–,–,–,100 to 1000,< 100,CCN(c1nc(OC[C@@]23CCCN2C[C@H](F)C3)nc2c(F)c(-c3ccc(F)c4sc(N)c(C#N)c34)c(Cl)cc12)[C@@H]1CCN(C(C)=O)[C@@H]1C [Compound 323],–
< 100,–,–,–,–,"CCN(c1nc(OC[C@@]23CCCN2C[C@H](F)C3)nc2c(F)c(-c3ccc(F)c4sc(N)c(C#N)c34)c(C(F)(F)F)cc12)[C@H]1C[C@H](C)N(C(=O)[C@@H]2CC2(F)F)C1 (atropisomer, axis not shown) [Compound 751]","IC50 (GP2d cells (KRAS G12D); GP2d, pERK HTRF, class symbols): < 100 nM"
–,–,–,100 to 1000,< 100,CC(=O)N1CC[C@@H](N(C)c2nc(OC[C@@]34CCCN3C[C@H](F)C4)nc3c(F)c(-c4ccc(F)c5sc(N)c(C#N)c45)c(Cl)cc23)[C@H]1C [Compound 398],–
–,–,–,< 100,< 100,CCN(c1nc(OC[C@@]23CCCN2C[C@H](F)C3)nc2c(F)c(-c3ccc(F)c4sc(N)c(C#N)c34)c(C(F)(F)F)cc12)[C@H]1C[C@H](C)N(C(C)=O)C1 [Compound 463],–
< 100,–,–,–,–,"CCN(c1nc(OC[C@@]23CCCN2C[C@H](F)C3)nc2c(F)c(-c3ccc(F)c4sc(N)c(C#N)c34)c(C(F)(F)F)cc12)[C@H]1CCN(C(=O)c2ncco2)C1 (atropisomer, axis not shown) [Compound 584]","IC50 (GP2d cells (KRAS G12D); GP2d, pERK HTRF, class symbols): < 100 nM"
–,–,–,100 to 1000,< 100,N#Cc1cnn2c1CN(c1nc(OC[C@@]34CCCN3C[C@H](F)C4)nc3c(F)c(-c4ccc(F)c5sc(N)c(C#N)c45)c(C(F)(F)F)cc13)CC2 [Compound 392],–
< 100,–,–,–,–,CCN(c1nc(OCC23CCCN2CC(F)C3)nc2c(F)c(-c3ccc(F)c4sc(N)c(C#N)c34)c(C(F)(F)F)cc12)C1CC(C)N(C(=O)N2CC(F)C2)C1 (stereo not shown) [Compound 759],"IC50 (GP2d cells (KRAS G12D); pERK HTRF, class symbols): < 100 nM"

Compound,"IC50 [1, 3] [nM]",IC50 (GP2d cells (KRAS G12D); GP2d) [nM],IC50 [2] [nM],IC50 ([1]; KRAS G12D-GppNHp/RAF1 RBD HTRF) [nM],"IC50 (GP2d cells (KRAS G12D); GP2d, pERK HTRF) [nM]",further results
N#Cc1c(N)sc2c(F)ccc(-c3c(C(F)(F)F)cc4c(N5CC6CC(C5)O6)nc(OC[C@@]56CCCN5C[C@H](F)C6)nc4c3F)c12 [Compound 145],–,< 100,1000 to 10000,–,< 100,"IC50 [1, 4]: 100 to 1000 nM"
"N#Cc1c(N)sc2c(F)ccc(-c3c(C(F)(F)F)cc4c(N5CC6CC(C5)O6)nc(OC[C@@]56CCCN5C[C@H](F)C6)nc4c3F)c12 (single isomer, unassigned) [Compound 275]",–,< 100,100 to 1000,–,–,"IC50 [1, 4]: 100 to 1000 nM; IC50 (GP2d cells (KRAS G12D); pERK HTRF): < 100 nM"
